Data on four compounds can be found in ChEMBL document CHEMBL1138139, “Synthesis of 1-(3',4',5'-trimethoxy) phenyl naphtho[2,1b]furan as a novel anticancer agent” (Bioorg Med Chem Lett, 2006).

Assay type in all cases: functional, cell-based
Assay [1] concerns KB. Description: Cytotoxicity against human KB403 cell line by MTT assay. A general note: Tetrazolium dyes change colour on reduction, which living cells bring about.
For assay [2], the system named is PA-1. In words: Cytotoxicity against human PA1 cell line by MTT assay.
Assay [3] deals with WRL68. In words: Cytotoxicity against human WRL68 cell line by MTT assay.
Assay [4] deals with COLO 320DM. In words: Cytotoxicity against human COLO320DM cell line by MTT assay.
The subject of assay [5] is Caco-2. In words: Cytotoxicity against human Caco-2 cell line by MTT assay.
For assay [6], the system named is MCF7. Description: Cytotoxicity against MCF7 cell line by MTT assay. To be noted: Homo sapiens.

≈ marks a conversion by molar mass, not a printed value.

A word on the IC50: it is the point on the concentration scale where inhibition reaches its midpoint. Low values mean greater potency, high ones weaker potency. As to `c1ccc(-c2coc3ccc4ccccc4c23)cc1`, the IC50 in assay [1] was found to be 9 µg/mL (≈ 36.8 µM).

As a reminder, the IC90 is the concentration needed for an effect of 90%. Low readings indicate an effect from little substance, high ones a need for much substance. Regarding `COc1cc(-c2coc3ccc4ccccc4c23)cc(OC)c1OC`, the IC50 in assay [2] turned out to be 3.5 µg/mL (≈ 10.5 µM); in assay [1] it was 8 µg/mL (≈ 23.9 µM); in assay [3] it was 0.7 µg/mL (≈ 2.09 µM); in assay [4] it was 0.65 µg/mL (≈ 1.94 µM); in assay [5], 0.5 µg/mL (≈ 1.5 µM). For the same compound, the IC90 was determined as 4.5 µg/mL (≈ 13.5 µM) in assay [2], 10 µg/mL (≈ 29.9 µM) in assay [1], 5 µg/mL (≈ 15 µM) in assay [3] and 4 µg/mL (≈ 12 µM) in assay [4].

As to `COc1ccc(-c2coc3ccc4ccccc4c23)cc1`, the IC50 in assay [2] was 4 µg/mL (≈ 14.6 µM); in assay [3], 6 µg/mL (≈ 21.9 µM); in assay [4], 5 µg/mL (≈ 18.2 µM); in assay [5], 0.95 µg/mL (≈ 3.46 µM). In addition, the IC90 turned out to be 8 µg/mL (≈ 29.2 µM) in assay [2] and 7.5 µg/mL (≈ 27.3 µM) in assay [5].

As for `CC(=O)O[C@H]1C(=O)[C@@]2(C)[C@H]([C@H](OC(=O)c3ccccc3)[C@]3(O)C[C@H](OC(=O)[C@H](O)[C@@H](NC(=O)c4ccccc4)c4ccccc4)C(C)=C1C3(C)C)[C@]1(OC(C)=O)CO[C@@H]1C[C@@H]2O` [PACLITAXEL], the IC50 stood at 0.006 µg/mL (≈ 0.00703 µM) in assay [2]; 0.001 µg/mL (≈ 0.00117 µM) in assay [1]; 0.0035 µg/mL (≈ 0.0041 µM) in assay [3]; 0.0045 µg/mL (≈ 0.00527 µM) in assay [4]; 0.007 µg/mL (≈ 0.0082 µM) in assay [5]. The IC90 was 0.9 µg/mL (≈ 1.05 µM) in assay [2]; 0.047 µg/mL (≈ 0.055 µM) in assay [1]; 2.5 µg/mL (≈ 2.93 µM) in assay [3]; 0.01 µg/mL (≈ 0.0117 µM) in assay [4]; 0.065 µg/mL (≈ 0.0761 µM) in assay [5]; 0.85 µg/mL (≈ 0.995 µM) in assay [6].
